Experimental data from patent US6486177B2, “Methods for treatment of cognitive and menopausal disorders with D-threo methylphenidate” (Celgene Corporation, priority 1995, dated 2002).

Legend:
[1] = D-threo vs DL-threo methylphenidate vs placebo in patients in the context of ADD: objective tests and subjective observations; type: in vivo, human; conditions: for performance in objective tests: at the 6 hour time point, versus DL-threo racemate or placebo
Excerpt: The present inventors have observed that in the context of ADD, D-threo methylphenidate has a longer duration of action than DL-methylphenidate of at least six hours.
Response by patients with cognitive deficiencies described herein is generally determined by two types of measurements: objective measures of a patient's ability to concentrate and remain focused on a task such as performing a math test; and subjective scores of a patient's performance.

[2] = cited from earlier work
[3] = children suffering from ADHD; Clin. Pharmacol. Ther. 52: 561-568 (1992); cited from earlier work

For `COC(=O)C(c1ccccc1)C1CCCCN1` (racemic) [DL-threo racemate, DL-threo-methylphenidate], the “performance in objective tests” value [1] is listed as “did not perform better after that time period than those who received a placebo”, the “euphoric effect / potential for abuse” value ([2]; administered intravenously or through inhalation or ingestion) is listed as “produces a euphoric effect” and the undesirable side effects ([2]; use of the racemate) is listed as “anorexia, weight loss, insomnia, dizziness and dysphoria”.

In the case of `COC(=O)[C@@H](c1ccccc1)[C@@H]1CCCCN1` (single isomer, unassigned) [L isomer, L-threo-methylphenidate, reference compound], the “pharmacodynamic activity / pharmacological effectiveness” value [3] is listed as “apparently makes no significant contribution to the pharmacological effectiveness of the drug”.

In the case of `COC(=O)[C@H](c1ccccc1)[C@H]1CCCCN1` [D-threo methylphenidate, D-threo-methylphenidate], the “pharmacodynamic activity / pharmacological effectiveness” value [3] is listed as “pharmacodynamic activity of DL-threo-methylphenidate resides in the D-threo isomer”, the “persistence of beneficial effects” value ([1]; D-threo isomer alone versus in combination with the L-threo isomer) is listed as “persist for a longer period time when the D-threo isomer is administered alone than when it is administered in combination with the L-threo isomer” and the “performance in objective tests” value [1] is listed as “performed better in objective tests than patients who received the DL-threo racemate or a placebo”. The “subjective observations: duration of beneficial effects” value ([1]; same patients, versus DL-threo racemate) was “experienced beneficial effects of the drug for longer times than did those who received the DL-threo racemate”.
